Experimental data: US8962652B2, “Derivatives of purine or deazapurine useful for the treatment of (inter alia) viral infections” (Gilead Sciences, Inc., priority 2009, dated 2015)

Test system: human Peripheral Blood Mononuclear Cell (PMBC)
Test: PBMC assay: cytokine (IFN-alpha) stimulation at 24 hours
Assay type: cell-based
Settings: minimum concentration for induction of IFN-alpha = 3-fold over background
Protocol: Assays were conducted to determine cytokine stimulation at 24 hours from human Peripheral Blood Mononuclear Cell (PMBC) using the compounds of the present invention. The assays were run in duplicate, with 8-point, half-log dilution curves. The compounds of the present invention were diluted from 10 mM DMSO solution. Cell supernatants are assayed directly for IFNa and 1:10 dilution for TNFa. The assays were performed in a similar fashion as described in Bioorg. Med. Chem. Lett. 16, 4559, (2006). Specifically, cryo-preserved PBMCs were thawed and seeded 96 well plates with 750,000 cells/well in 190 μL/well cell media. The PBMCs were then incubated for 1 hour at 37° C. at […]. Then, the compounds of the present invention were added in 10 μL cell media at 8 point, half-log dilution titration. The plates were incubated at 37° C. and 5% CO2 for 24 hours and then spinned at 1200 rpm for 10 min, which was followed by collecting supernatant and storing the same at −80° C. Cytokine secretion was assayed with Luminex and Upstate multi-plex kits, using a Luminex analysis instrument. IFN MEC value for a compound was the minimum concentration at which IFN-a production stimulated by the compound reached three fold above background, as determined using the assay method above.

SMILES | minimal effective concentration (read-out: MEC) [µM] | MEC
COCCOc1cc2c([nH]c(=O)n2Cc2ccc(-c3ccc(CN4CCCC4)cc3)cc2)c(N)n1 [AX] | 0.001 to 0.009 | 
CCCCOc1nc(N)c2[nH]c(=O)n(Cc3cccc(-c4ccccc4CN4CCCC4)c3)c2n1 [A] |  | d (d: 100 nM-1000 nM)
